Experimental data reported in patent US7144862B2, “Orally administered peptides to ameliorate atherosclerosis” (The Regents of the University of California, priority 2000, dated 2006).
≈ marks a conversion by molar mass, not a printed value. Where “and” joins values, the source holds several entries; their conditions need not be identical. Equal values may be shown once. Entries after “also recorded” stand apart in the source; their conditions may differ. Read-outs that look alike come from different tables or passages of the source. Values belong to the compound of their own block, whether it stands above or below them. Non-standard residues stand in square brackets, D forms with d. Residues, ends and D or L forms follow the SMILES beside them.

Columns and labels:
[1] = test system: Human aortic wall cocultures; assay: LDL plus peptide in vitro in human aortic wall cocultures, monocyte chemotactic activity (Example 2); assay type: cell-based; conditions: control LDL 250 μg/ml plus varying amounts of peptide
Protocol: Human aortic wall cocultures were incubated with medium alone (LDL, NO CELLS or CELLS, NO LDL, see FIG. 9), control LDL from normal subjects at 250 μg/ml (LDL) and LDL plus control HDL from normal subjects at 350 μg/ml (+HDL). Other cocultures were incubated With the control LDL together with varying amounts (micrograms shown on the abscissa) of either D-2F, or L-2F (third panel from the left, 2F) or D-37-pA or L-37pA (last panel on the right, 37pA). The data represent mean±SD of values obtained from quadruplicate cocultures.

[2] = test system: human artery wall cell cocultures; assay: Lipoproteins from mice given peptide by gavage tested in human artery wall cell cocultures (monocyte chemotactic activity)
[3] = Solubility in PBS; assay type: physicochemical
Protocol: The peptides were purified on a preparative Vydac C4 column by reversed-phase (RP)-HPLC using water (with 0.1% trifluoroacetic acid) and acetonitrile (0.1% trifluoroacetic acid). The purity and the retention times of the peptides were determined on an analytical Vydac C18 column using a gradient of 25%-58% acetonitrile in water containing 0.1% TFA. The purity of these peptides was also confirmed by mass spectrometry. The mass was in agreement with the calculated molecular weight. Although both the 3F peptides and 4F have additional Phe residues compared to 2F, the retention times of these peptides on the C18 column are not very different (˜22 min). A sudden increase in the retention time is apparent with 5F, 6F and 7F (˜26 min). With increasing number of Phe residues, the solubility of these peptides in PBS decreases.

[4] = Surface pressure measurements: monolayer exclusion pressure; assay type: physicochemical; conditions: EPC monolayer; reproducibility ± 1 dyn/cm
Protocol: An insoluble monolayer of egg phosphatidylcholine (EPC) was spread at the air-water interface in a Teflon dish at room temperature to give an initial surface pressure (πi) in the range of 5–45 dyn/cm. A solution of peptides in PBS containing 1.5M Gdn. HCl was carefully injected in to the subphase to give a final concentration of 50 μg/dL. The Gdn. HCl was diluted in the subphase to a final concentration of ≦1 mM to allow the peptides to renature. The subphase was stirred continuously and the increase in EPC monolayer surface pressure (Δπ) was recorded until a steady state value was obtained. The value of the initial surface pressure (πi) at which the peptides no longer penetrate the EYPC monolayer i.e. the exclusion pressure (πe), was calculated by extrapolating the πi vs Δπ linear regression fit to Δπ=0 dyn/cm.

[5] = Right angle light scattering, dissolution of EPC MLVs; assay type: physicochemical; conditions: 105 μM EPC, equimolar peptide; for clarification of EPC MLVs: 25° C., 30 min
Protocol: EPC MLVs were prepared by evaporating a solution of EPC (Avanti Polar, AL) under nitrogen and hydrating the lipid film with phosphate-buffered saline (pH 7.4). […] Turbidity clarification was monitored for 30 min.

[6] = mouse, in vivo
[7] = Circular dichroism, percent helicity; assay type: physicochemical; conditions: for Percent Helicity PBS: 11 μM peptide in PBS; for Percent Helicity DMPC: 11 μM peptide, Peptide: DMPC 1:20 (mol/mol)
Protocol: Briefly, spectra were obtained using a cell with a 0.1 cm path length and measurements were taken every nm from 260 nm to 190 nm at 25° C. All the CD spectra were signal averaged by adding four scans, base line corrected and smoothed. Peptide solutions in PBS, pH 7.4, were used at a concentration of 11 μM. Peptide-DMPC complexes (1:20 mol:mol) were used to determine the effect of lipid binding on the helicity of these peptides. These complexes were prepared by adding the appropriate volume of peptide solution to DMPC multilamellar vesicles. DMPC multilamellar vesicles were prepared as follows: A known amount of lipid was dissolved in ethanol and the solvent was removed by evaporating slowly under a thin stream of nitrogen. Residual solvent was removed by storing the lipid film under vacuum overnight. An appropriate volume of PBS, pH 7.4 was added to the thin lipid film to give the required final concentration of DMPC.

[8] = DSC, chain melting transition of DMPC; assay type: physicochemical; conditions: DMPC/peptide 100:1 (mol/mol); for TCM(° C.): 1.5 mM DMPC, chain melting transition temperature; for ΔHCM (kcals/mol): enthalpy of the transition; for ΔT1/2 (° C.): width at half maximum of the transition
Protocol: (§1) A known amount of phospholipid was dissolved in chloroform. For one set of samples, peptide was dissolved in methanol and added to a solution of DiPoPE in chloroforn/methanol (2:1, v:v). For both, pure lipid samples and the organic solutions of lipid and peptide, solvent was removed under a slow stream of nitrogen. Residual solvent was removed under vacuum. […] For DMPC, four consecutive scans with a 60 minute equilibration time between scans were taken. DSC thermograms were analyzed using the software provided by MicroCal Inc., Amherst, Mass., and Origin, version 5.0.
The effect of these 18A analogues on the chain melting transition of multilamellar vesicles of DMPC was studied by DSC using peptide-lipid mixtures at 100:1 lipid/peptide molar ratio.

[9] = DSC, bilayer to hexagonal phase transition of DiPoPE; assay type: physicochemical; conditions: heating scan rate 37°/h
Protocol: as §1
In the current study we prepared the peptide-lipid mixtures in two ways. One was by adding the peptide in organic solvent to the lipid in organic solvent followed by depositing the material as a film and subsequently hydrating with buffer. In the other method, the peptide and lipid were mixed after each was hydrated separately. If the mixture comes to equilibrium prior to the DSC analysis, it should not matter how the peptide and lipid are originally mixed. However, membrane systems can equilibrate slowly, in which case there may be more peptide in the lipid when it was incorporated at high concentrations into the lipid film.

[10] = test system: human artery wall cell cocultures; assay: LDL-induced monocyte chemotactic activity with the homologous series of peptides (Example 3); assay type: cell-based; conditions: peptide at 100 μg/ml, LDL 250 μg protein/ml, 8 h
Protocol: Microtitre plates were treated with 0.1% gelatin at 37° C. overnight. HASMC were added at a confluent density of 1×10^5 cells/cm^2. […] HAEC were subsequently added at 2×10^5 cells/cm^2 and were allowed to grow, forming a complete monolayer of confluent HAEC in two days. In all experiments, HAEC and autologous HASMC (from the same donor) were used at passage levels of four to six. […] The cocultures were treated with native LDL(250 μg protein/ml) or presence of HDL (350 μg protein/ml) or peptides for 8 h.

[11] = 5F, 100 μg per animal by oral gavage, LDL receptor null mice, blood after 6 hrs

Compound: H-DWLKAFYDKVAEKLKEAFPDWLKAFYDKVAEKLKEAF-OH [Peptide L-37pA, reference compound]
monocyte chemotactic activity induced by LDL treated with peptide in vitro [1]: significantly different from LDL

Compound: Ac-DWLKAFYDKVAEKLKEAF-NH2 [Peptide L-2F, Ac-D-W-L-K-A-F-Y-D-K-V-A-E-K-L-K-E-A-F-NH2]
monocyte chemotactic activity induced by LDL treated with peptide in vitro [1]: significantly different from LDL; also recorded: equally able to block LDL oxidation and LDL-induced monocyte chemotactic activity
monocyte chemotaxis induced by LDL from mice given 2F by gavage ([2]; D versus L form by gavage): readily induced monocyte chemotaxis

Compound: Ac-DWLKAFYDKVFEKFKEFF-NH2 [Peptide L-5F, Ac-D-W-L-K-A-F-Y-D-K-V-F-E-K-F-K-E-F-F-NH2]
HDL protective capacity [2, 11]: but not L-5F rendered the HDL markedly more protective

Compound: CC(=O)N[C@H](CC(=O)O)C(=O)N[C@H](Cc1c[nH]c2ccccc12)C(=O)N[C@H](CC(C)C)C(=O)N[C@H](CCCCN)C(=O)N[C@H](C)C(=O)N[C@H](Cc1ccccc1)C(=O)N[C@H](Cc1ccc(O)cc1)C(=O)N[C@H](CC(=O)O)C(=O)N[C@H](CCCCN)C(=O)N[C@@H](C(=O)N[C@H](Cc1ccccc1)C(=O)N[C@H](CCC(=O)O)C(=O)N[C@H](CCCCN)C(=O)N[C@H](Cc1ccccc1)C(=O)N[C@H](CCCCN)C(=O)N[C@H](CCC(=O)O)C(=O)N[C@H](Cc1ccccc1)C(=O)N[C@H](Cc1ccccc1)C(N)=O)C(C)C [Peptide D-5F, Ac-D-W-L-K-A-F-Y-D-K-V-F-E-K-F-K-E-F-F-NH2] (Ac-[dD][dW][dL][dK][dA][dF][dY][dD][dK][dV][dF][dE][dK][dF][dK][dE][dF][dF]-NH2)
HDL protective capacity [2, 11]: markedly more protective
LDL resistance to oxidation [2, 11]: highly resistant to oxidation
monocyte chemotactic activity induced by mouse VLDL/IDL fraction ([2]; 50 micrograms by gavage, 3 hour time point): significantly less monocyte chemotactic activity
protection of control LDL by mouse HDL ([2]; 50 micrograms by gavage, HDL taken after 6 hours): slightly less
monocyte chemotactic activity induced by mouse LDL ([2]; 50 micrograms by gavage, after 3 h and 6 h): significantly less monocyte chemotactic activity

Compound: Human apo A-I: Human apo A-I is a 243 residue protein, major protein constituent of HDL
Solubility [3]: >2000 µg/mL
Monolayer Exclusion Pressure(πc) [4]: 34 dyn/cm
clarification of EPC MLVs [5]: does not clarify EPC MLVs
Max. % in plasma [6]: 23.7%
Time (h) to max. CPM ([6]; ip): 3.61 h
T½ ([6]; ip): 15.6 h

Solubility [3]: 30 µg/mL
solubility ([3]; Solubility (mg/ml)): 30 to 100 µg/mL
Monolayer Exclusion Pressure(πc) [4]: 45 dyn/cm and 46 dyn/cm
Percent Helicity PBS [7]: 67%
Percent Helicity DMPC [7]: 50%
TCM(° C.) [8]: 23.1 °C
ΔHCM (kcals/mol) [8]: 4.0 kcals/mol
ΔT1/2 (° C.) [8]: 0.5 °C
shift in TH of DiPoPE with mol fraction of peptide [9]: do not significantly affect TH
Compound: Ac-DWLKAFYDKFFEKFKEFF-NH2 [Peptide 6F, Ac-D-W-L-K-A-F-Y-D-K-F-F-E-K-F-K-E-F-F-NH2]
clarification of EPC MLVs [5]: clarified the EPC MLVs to a similar extents
inhibition of LDL-induced monocyte chemotaxis [10]: significant and similar inhibition

Monolayer Exclusion Pressure(πc) [4]: 45 dyn/cm
Percent Helicity PBS [7]: 58%
Percent Helicity DMPC [7]: 68%
TCM(° C.) [8]: 23.2 °C
ΔHCM (kcals/mol) [8]: 4.5 kcals/mol
ΔT1/2 (° C.) [8]: 0.5 °C
shift in TH of DiPoPE with mol fraction of peptide [9]: do not significantly affect TH
Compound: Ac-DWFKAFYDKFFEKFKEFF-NH2 [Peptide 7F, Ac-D-W-F-K-A-F-Y-D-K-F-F-E-K-F-K-E-F-F-NH2]
initial lag period in EPC MLV clearance [5]: ~300 s
time for 50% clearance of the turbidity of EPC MLVs [5]: longest time
clarification of EPC MLVs [5]: clarified the EPC MLVs to a similar extents
inhibition of LDL-induced monocyte chemotaxis [10]: significantly less effective than peptides 4F, 5F and 6F

Compound: H-DWLKAFYDKVAEKLKEAFPDWLKAFYDKVAEKLKEAF-OH [Peptide 37pA, DWLKAFYDKVAEKLKEAFPDWLKAFYDKVAEKLKEAF, reference compound]
solubility ([3]; in PBS, read-out: Solubility): > 2000 µg/mL
Monolayer Exclusion Pressure(πc) [4]: 40 dyn/cm and 41 dyn/cm

Solubility [3]: 1300 µg/mL (≈ 563 µM)
solubility ([3]; Solubility (mg/ml)): 1250 to 1400 µg/mL (≈ 541 to 606 µM)
Monolayer Exclusion Pressure(πc) [4]: 40 dyn/cm
Percent Helicity PBS [7]: 45%
Percent Helicity DMPC [7]: 44%
TCM(° C.) [8]: 23.2 °C
ΔHCM (kcals/mol) [8]: 5.3 kcals/mol
ΔT1/2 (° C.) [8]: 0.4 °C
Compound: CC(=O)N[C@@H](CC(=O)O)C(=O)N[C@@H](Cc1c[nH]c2ccccc12)C(=O)N[C@@H](Cc1ccccc1)C(=O)N[C@@H](CCCCN)C(=O)N[C@@H](C)C(=O)N[C@@H](Cc1ccccc1)C(=O)N[C@@H](Cc1ccc(O)cc1)C(=O)N[C@@H](CC(=O)O)C(=O)N[C@@H](CCCCN)C(=O)N[C@H](C(=O)N[C@@H](C)C(=O)N[C@@H](CCC(=O)O)C(=O)N[C@@H](CCCCN)C(=O)N[C@@H](Cc1ccccc1)C(=O)N[C@@H](CCCCN)C(=O)N[C@@H](CCC(=O)O)C(=O)N[C@@H](C)C(=O)N[C@@H](Cc1ccccc1)C(N)=O)C(C)C [Peptide 4F, Ac-D-W-F-K-A-F-Y-D-K-V-A-E-K-F-K-E-A-F-NH2]
shift in TH of DiPoPE with mol fraction of peptide [9]: more rapid increase is observed at lower peptide concentrations
time for 50% clearance of the turbidity of EPC MLVs [5]: shortest
clarification of EPC MLVs [5]: most effective in clarifying EPC MLVs with activity similar to that of Triton X-100
inhibition of LDL-induced monocyte chemotaxis [10]: significant and similar inhibition

Compound: H-DWLKAFYDKVAEKLKEAF-OH [Peptide 18A, D-W-L-K-A-F-Y-D-K-V-A-E-K-L-K-E-A-F, reference compound]
solubility ([3]; in PBS, read-out: Solubility): > 2000 µg/mL
Monolayer Exclusion Pressure(πc) [4]: 30 dyn/cm

Compound: Ac-DWFKAFYDKVAEKLKEAF-NH2 [3F^3]
solubility ([3]; in PBS, read-out: Solubility): 1250 to 1400 µg/mL
